In the CheMixHub ionic liquid set:

Experiment: xn = mol fraction of the nth substance listed
Details: 101 kPa

Cc1ncc(C[n+]2csc(CCO)c2C)c(N)n1.Cl.[Cl-] + CCCCCCCCCCCCOS(=O)(=O)[O-].[Na+] + O
electrical conductivity [S/m]
Details	308.15 K	318.15 K
x2 = 0, x1 = 1.8e-07	0.00293	0.00286
x2 = 0, x1 = 9e-07	0.00544	0.00608
x2 = 0, x1 = 1.8e-06	0.00836	0.00964
x2 = 7.35e-06, x1 = 1.8e-07	0.00693	0.00698
x2 = 7.35e-06, x1 = 9e-07	0.00954	0.0104
x2 = 7.35e-06, x1 = 1.8e-06	0.0129	0.0147
x2 = 1.463e-05, x1 = 1.8e-07	0.0109	0.0112
x2 = 1.463e-05, x1 = 9e-07	0.0135	0.0145
x2 = 1.463e-05, x1 = 1.8e-06	0.0172	0.0195
x2 = 2.18e-05, x1 = 1.8e-07	0.0147	0.0153
x2 = 2.18e-05, x1 = 9e-07	0.0175	0.0186
x2 = 2.18e-05, x1 = 1.8e-06	0.0213	0.0241
x2 = 2.901e-05, x1 = 1.8e-07	0.0186	0.0195
x2 = 2.901e-05, x1 = 9e-07	0.0215	0.0226
x2 = 2.901e-05, x1 = 1.8e-06	0.0254	0.0286
x2 = 3.604e-05, x1 = 1.8e-07	0.0224	0.0235
x2 = 3.604e-05, x1 = 9e-07	0.0254	0.0266
x2 = 3.604e-05, x1 = 1.8e-06	0.0296	0.033
x2 = 4.307e-05, x1 = 1.8e-07	0.026	0.0276
x2 = 4.307e-05, x1 = 9e-07	0.0293	0.0306
x2 = 4.307e-05, x1 = 1.8e-06	0.0336	0.0375
x2 = 4.991e-05, x1 = 1.8e-07	0.0297	0.0315
x2 = 4.991e-05, x1 = 9e-07	0.0331	0.0346
x2 = 4.991e-05, x1 = 1.8e-06	0.0376	0.0417
x2 = 5.676e-05, x1 = 1.8e-07	0.0333	0.0355
x2 = 5.676e-05, x1 = 9e-07	0.0367	0.0386
x2 = 5.676e-05, x1 = 1.8e-06	0.0416	0.0458
x2 = 6.361e-05, x1 = 1.8e-07	0.037	0.0393
x2 = 6.361e-05, x1 = 9e-07	0.0404	0.0425
x2 = 6.361e-05, x1 = 1.8e-06	0.0455	0.0498
x2 = 7.027e-05, x1 = 1.8e-07	0.0405	0.043
x2 = 7.027e-05, x1 = 9e-07	0.0441	0.0464
x2 = 7.028e-05, x1 = 1.8e-06	0.0493	0.0537
x2 = 7.694e-05, x1 = 1.8e-07	0.044	0.0467
x2 = 7.694e-05, x1 = 9e-07	0.0477	0.0503
x2 = 7.694e-05, x1 = 1.8e-06	0.0529	0.0576
x2 = 8.361e-05, x1 = 1.8e-07	0.0473	0.0503
x2 = 8.361e-05, x1 = 9e-07	0.0513	0.0542
x2 = 8.361e-05, x1 = 1.8e-06	0.0564	0.0614
x2 = 9.009e-05, x1 = 1.8e-07	0.0507	0.0539
x2 = 9.009e-05, x1 = 9e-07	0.0547	0.058
x2 = 9.009e-05, x1 = 1.8e-06	0.0597	0.0651
x2 = 9.658e-05, x1 = 1.8e-07	0.054	0.0576
x2 = 9.658e-05, x1 = 9e-07	0.0581	0.0618
x2 = 9.658e-05, x1 = 1.8e-06	0.0627	0.0686
x2 = 0.0001031, x1 = 1.8e-07	0.0571	0.0611
x2 = 0.0001031, x1 = 9e-07	0.0612	0.0653
x2 = 0.0001031, x1 = 1.8e-06	0.0656	0.0721
x2 = 0.0001094, x1 = 1.8e-07	0.0601	0.0643
x2 = 0.0001094, x1 = 9e-07	0.0641	0.0687
x2 = 0.0001094, x1 = 1.8e-06	0.0684	0.0754
x2 = 0.0001157, x1 = 1.8e-07	0.0629	0.0676
x2 = 0.0001157, x1 = 9e-07	0.0668	0.0719
x2 = 0.0001157, x1 = 1.8e-06	0.071	0.0784
x2 = 0.000122, x1 = 1.8e-07	0.0658	0.0707
x2 = 0.000122, x1 = 9e-07	0.0696	0.075
x2 = 0.000122, x1 = 1.8e-06	0.0734	0.0813
x2 = 0.0001281, x1 = 1.8e-07	0.0684	0.0736
x2 = 0.0001281, x1 = 9e-07	0.0725	0.0777
x2 = 0.0001281, x1 = 1.8e-06	0.0755	0.0841
x2 = 0.0001342, x1 = 1.8e-07	0.0709	0.0764
x2 = 0.0001342, x1 = 9e-07	0.0746	0.0802
x2 = 0.0001342, x1 = 1.8e-06	0.0776	0.0868
x2 = 0.0001404, x1 = 1.8e-07	0.0732	0.079
x2 = 0.0001404, x1 = 9e-07	0.0766	0.0822
x2 = 0.0001404, x1 = 1.8e-06	0.0797	0.0894
x2 = 0.0001465, x1 = 1.8e-07	0.0752	0.0816
x2 = 0.0001465, x1 = 9e-07	0.0783	0.0841
x2 = 0.0001465, x1 = 1.8e-06	0.0817	0.0919
x2 = 0.0001524, x1 = 1.8e-07	0.077	0.0838
x2 = 0.0001524, x1 = 9e-07	0.08	0.086
x2 = 0.0001524, x1 = 1.8e-06	0.0836	0.0943
x2 = 0.0001584, x1 = 1.8e-07	0.0786	0.0858
x2 = 0.0001584, x1 = 9e-07	0.0816	0.0878
x2 = 0.0001584, x1 = 1.8e-06	0.0855	0.0962
x2 = 0.0001641, x1 = 1.8e-07	0.0802	0.0876
x2 = 0.0001641, x1 = 9e-07	0.0831	0.0895
x2 = 0.0001641, x1 = 1.8e-06	0.0874	0.0981
x2 = 0.0001699, x1 = 1.8e-07	0.0817	0.0893
x2 = 0.0001699, x1 = 9e-07	0.0846	0.0911
x2 = 0.0001699, x1 = 1.8e-06	0.0893	0.1
x2 = 0.0001757, x1 = 1.8e-07	0.083	0.0909
x2 = 0.0001757, x1 = 9e-07	0.086	0.0927
x2 = 0.0001757, x1 = 1.8e-06	0.091	0.102
x2 = 0.0001814, x1 = 1.8e-07	0.0843	0.0924
x2 = 0.0001814, x1 = 9e-07	0.0874	0.0943
x2 = 0.0001814, x1 = 1.8e-06	0.0928	0.104
x2 = 0.000187, x1 = 1.8e-07	0.0855	0.0939
x2 = 0.000187, x1 = 9e-07	0.0887	0.0957
x2 = 0.000187, x1 = 1.8e-06	0.0946	0.106
x2 = 0.0001928, x1 = 1.8e-07	0.0867	0.0952
x2 = 0.0001928, x1 = 9e-07	0.09	0.0974
x2 = 0.0001928, x1 = 1.8e-06	0.0964	0.107
x2 = 0.0001982, x1 = 1.8e-07	0.0879	0.0966
x2 = 0.0001982, x1 = 9e-07	0.0912	0.0991
x2 = 0.0001982, x1 = 1.8e-06	0.0982	0.109
x2 = 0.0002038, x1 = 1.8e-07	0.089	0.0979
x2 = 0.0002038, x1 = 9e-07	0.0924	0.101
x2 = 0.0002038, x1 = 1.8e-06	0.0997	0.111
x2 = 0.0002092, x1 = 1.8e-07	0.0901	0.0992
x2 = 0.0002092, x1 = 9e-07	0.0936	0.102
x2 = 0.0002092, x1 = 1.8e-06	0.101	0.112
x2 = 0.0002147, x1 = 1.8e-07	0.0913	0.1
x2 = 0.0002148, x1 = 9e-07	0.0949	0.104
x2 = 0.0002148, x1 = 1.8e-06	0.102	0.114
x2 = 0.00022, x1 = 1.8e-07	0.0925	0.102
x2 = 0.00022, x1 = 9e-07	0.0961	0.105
x2 = 0.00022, x1 = 1.8e-06	0.104	0.115
x2 = 0.0002254, x1 = 1.8e-07	0.0937	0.103
x2 = 0.0002254, x1 = 9e-07	0.0974	0.107
x2 = 0.0002254, x1 = 1.8e-06	0.105	0.116
x2 = 0.0002306, x1 = 1.8e-07	0.0949	0.104
x2 = 0.0002306, x1 = 9e-07	0.0986	0.108
x2 = 0.0002306, x1 = 1.8e-06	0.106	0.117
x2 = 0.0002358, x1 = 1.8e-07	0.0962	0.105
x2 = 0.0002358, x1 = 9e-07	0.0998	0.109
x2 = 0.0002358, x1 = 1.8e-06	0.107	0.119
x2 = 0.0002411, x1 = 1.8e-07	0.0973	0.106
x2 = 0.0002411, x1 = 9e-07	0.101	0.111
x2 = 0.0002411, x1 = 1.8e-06	0.108	0.12
